Data on two compounds can be found in US11760762B2, “Thienopyranones and furanopyranones as kinase, bromodomain, and checkpoint inhibitors” (SignalRx Pharmaceuticals, Inc., priority 2017, dated 2023).

The subject of data set [1] is Huh7 cells. As to the kind of experiment: Western blot signaling in IGF-1 stimulated Huh7 cells (p-AKT, pRB). The data set is classed as cell-based. The following applies: Huh7, serum starved, IGF-1 stimulation 30 min. As for the experimental part:
The hepatocellular carcinoma cell line, Huh7 was serum starved overnight in serum free medium. Cells were seeded into a 96 well tissue culture plate at 1×10^4 cells/well and pulsed with IGF-1 stimulation for 30 min at 37° C. at which time lysates were generated for SDS PAGE analysis. Western blot analysis was performed for p-AKT, AKT, pRB, RB and beta actin as loading control.

For another data set, the target named is T1, CDK9 (Homo sapiens, UniProt P50750).
T1 construct: Reaction Biology Corp., Malvern, PA (contract assay service)
T1 sequence (P50750 whole entry): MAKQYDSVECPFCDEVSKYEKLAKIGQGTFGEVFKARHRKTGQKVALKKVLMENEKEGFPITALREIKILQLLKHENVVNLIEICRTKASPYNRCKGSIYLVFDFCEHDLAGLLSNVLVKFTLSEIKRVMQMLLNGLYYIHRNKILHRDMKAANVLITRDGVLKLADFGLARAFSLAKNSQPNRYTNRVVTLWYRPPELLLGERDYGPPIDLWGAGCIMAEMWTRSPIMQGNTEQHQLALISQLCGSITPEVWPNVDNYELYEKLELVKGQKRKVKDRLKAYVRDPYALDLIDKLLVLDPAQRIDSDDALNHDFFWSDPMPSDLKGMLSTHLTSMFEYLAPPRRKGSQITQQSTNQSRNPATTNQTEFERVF
T1 sequence (O60563 whole entry partner): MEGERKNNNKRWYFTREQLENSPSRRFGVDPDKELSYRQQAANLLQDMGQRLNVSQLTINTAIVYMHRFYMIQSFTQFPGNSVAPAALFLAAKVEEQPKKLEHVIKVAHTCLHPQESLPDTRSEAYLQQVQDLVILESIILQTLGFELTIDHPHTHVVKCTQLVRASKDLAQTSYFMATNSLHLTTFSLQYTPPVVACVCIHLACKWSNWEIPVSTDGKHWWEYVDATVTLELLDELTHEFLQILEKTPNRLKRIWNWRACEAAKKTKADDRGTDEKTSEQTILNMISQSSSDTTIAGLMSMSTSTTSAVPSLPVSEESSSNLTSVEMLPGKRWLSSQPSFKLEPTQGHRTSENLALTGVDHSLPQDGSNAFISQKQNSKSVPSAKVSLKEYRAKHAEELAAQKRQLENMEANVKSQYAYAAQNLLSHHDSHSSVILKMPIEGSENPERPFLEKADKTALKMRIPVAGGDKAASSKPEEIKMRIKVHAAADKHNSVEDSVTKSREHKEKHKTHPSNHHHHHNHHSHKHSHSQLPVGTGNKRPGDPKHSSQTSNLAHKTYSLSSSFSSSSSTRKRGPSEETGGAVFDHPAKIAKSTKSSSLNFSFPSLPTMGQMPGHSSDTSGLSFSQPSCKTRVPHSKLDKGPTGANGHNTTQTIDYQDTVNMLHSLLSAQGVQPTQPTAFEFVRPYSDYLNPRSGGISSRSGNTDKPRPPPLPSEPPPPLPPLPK
As to the kind of experiment: Cyclin dependent kinase inhibition (Reaction Biology Corp.). In kind it is biochemical. As for the experimental part:
(§1) PI3K-alpha, PI3K-beta, PI3K-gamma, and PI3K-delta inhibition activity was determined by Thermo Fisher Scientific-Biosciences Life Sciences Solutions, Madison, WI The bromodomain protein inhibition (binding domain 1 and 2 of BRD4) was determined by Reaction Biology Corp., Malvern, PA The cyclin dependent kinase inhibition on proteins such as CDK2, CDK4, CDK6, and CDK9 was determined by Reaction Biology Corp., Malvern, PA.

The target in a further data set is T2, CDK2 (Homo sapiens, UniProt P24941).
T2 construct: Reaction Biology Corp., Malvern, PA (contract assay service)
Described as above. The data set is classed as biochemical. As for the experimental part:
as §1

Another data set has as its target T3, CDK6 (Homo sapiens, UniProt Q00534).
T3 construct: Reaction Biology Corp., Malvern, PA (contract assay service)
Described as above. The data set is classed as biochemical. As for the experimental part: as §1
(§2) The compounds of the invention were characterized by their ability to inhibit the target proteins using third party vendors offering such services. PI3K-alpha, PI3K-gamma, and PI3K-delta inhibition activity was determined by Thermo Fisher Scientific-Biosciences Life Sciences Solutions, Madison, WI. […] NI=no inhibition detected up to 50 μM or IC50 not reached at 50 μM. ND=not done.

The target in a further data set is T4, CDK4 (Homo sapiens, UniProt P11802).
T4 construct: Reaction Biology Corp., Malvern, PA (contract assay service)
T4 sequence (P11802 whole entry): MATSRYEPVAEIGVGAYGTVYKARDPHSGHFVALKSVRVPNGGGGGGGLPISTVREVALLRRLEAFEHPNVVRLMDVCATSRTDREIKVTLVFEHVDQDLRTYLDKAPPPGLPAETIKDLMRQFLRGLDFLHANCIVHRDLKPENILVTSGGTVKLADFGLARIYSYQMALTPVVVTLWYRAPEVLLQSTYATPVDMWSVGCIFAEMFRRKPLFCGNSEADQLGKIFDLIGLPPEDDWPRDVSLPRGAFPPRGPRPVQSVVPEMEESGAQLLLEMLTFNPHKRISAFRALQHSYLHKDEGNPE
T4 sequence (P24385 whole entry partner): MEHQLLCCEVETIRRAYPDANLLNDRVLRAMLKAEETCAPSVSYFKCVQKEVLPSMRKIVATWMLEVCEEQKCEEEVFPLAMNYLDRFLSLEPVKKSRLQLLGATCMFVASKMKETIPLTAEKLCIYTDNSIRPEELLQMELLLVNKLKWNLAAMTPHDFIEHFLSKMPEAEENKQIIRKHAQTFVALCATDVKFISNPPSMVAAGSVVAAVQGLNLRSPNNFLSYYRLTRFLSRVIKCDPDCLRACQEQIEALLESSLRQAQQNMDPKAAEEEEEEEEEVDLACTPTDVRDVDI
The description is as above. The data set is classed as biochemical. As for the experimental part: as §1, §2

Another data set relates to CHLA-136. As to the kind of experiment: Neuroblastoma cell viability, Alamar Blue. The data set is classed as cell-based. The following applies: Homo sapiens, 24 hours incubation. As for the experimental part: (§3) IC50 for each cell line was determined using Graphpad Prism software module.
The test system of a further data set is SMS-KNCR. The data set is described as follows: Neuroblastoma cell viability, Alamar Blue. In kind it is cell-based. The conditions noted are these: Homo sapiens, 24 hours incubation. As for the experimental part: as §3
A further data set deals with CHLA-255. As to the kind of experiment: Neuroblastoma cell viability, Alamar Blue. In kind it is cell-based. The conditions noted are these: Homo sapiens, 24 hours incubation. As for the experimental part:
as §3

In data set [2] the test system is Huh7 cells. As to the kind of experiment: Huh7 tumor implantation in NGS mice, safety and efficacy. The following applies: 30 mg/kg oral gavage, 5 times per week for 2 weeks.
Text: 1×10^7 Huh7 cells were implanted into NGS mice. When tumors reached ˜100 mm^3 after 14 days of tumor implantation, animals were divided into four groups (n=8 per group).
For a further data set, the system named is Huh7 2H cell line. The data set is described as follows: Huh7 2H cell viability. The data set is classed as cell-based. The following applies: Homo sapiens, Huh-7, 2 h. The method, then: (§4) Cells were seeded into 96-well plate at 1×10^4 cell per well in complete medium+10% FCS and incubated for 24 hours prior to the addition of compounds at concentrations ranging from 50 μM to 50 nM. Cell viability was quantitated 24 hours after the addition of compounds using AlamarBlue® viable cell detection reagent. IC50 curves were determined using Graphpad Prism software.
The procedures of example 6 were followed except using the Huh7 2H cell line.

Another data set concerns Mino and Granta cells. As to the kind of experiment: Western blot PI3K and CDK4/cyclin D/Rb signaling in mantle cell lymphoma cells. In kind it is cell-based. The conditions noted are these: 24 hours. From the text:
Cells were lysed in RIPA buffer and equal protein was loaded on SDS-PAGE gel followed by western blotting using p-AKT-Ser473, AKT, pRB-S780/811, RB, pP70S6K. β-actin served as loading control.

The next data set deals with PIM1 (Homo sapiens, UniProt P11309). As to the kind of experiment: PIM1 inhibition. In kind it is biochemical.
Sequence of PIM1 (P11309 whole entry, species assumed): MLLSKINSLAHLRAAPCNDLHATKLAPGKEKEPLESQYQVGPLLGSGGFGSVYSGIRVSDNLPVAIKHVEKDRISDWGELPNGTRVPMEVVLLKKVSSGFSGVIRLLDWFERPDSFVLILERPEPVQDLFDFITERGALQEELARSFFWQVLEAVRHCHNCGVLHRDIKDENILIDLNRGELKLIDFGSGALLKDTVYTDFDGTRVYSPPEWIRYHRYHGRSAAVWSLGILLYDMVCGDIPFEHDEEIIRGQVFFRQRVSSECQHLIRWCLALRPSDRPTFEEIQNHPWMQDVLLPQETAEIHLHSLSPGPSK
Another data set deals with Huh7. The data set is described as follows: Hepatocellular carcinoma cell viability, AlamarBlue. The data set is classed as cell-based. The following applies: Homo sapiens, Huh-7; 24 hours; read-out: Hepatocarcinoma Cell Line IC50 Values Huh7. The method, then: as §4
In general terms: Alamar Blue is a resazurin reagent that responds to reducing activity.

A further data set concerns HepG2. Described as above. The data set is classed as cell-based. The following applies: Homo sapiens, 24 hours, read-out: Hepatocarcinoma Cell Line IC50 Values HepG2. The method, then: as §4
The subject of another data set is Hep3B. Described as above. The following applies: Homo sapiens, 24 hours, read-out: Hepatocarcinoma Cell Line IC50 Values Hep3B. The data set is classed as cell-based. As for the experimental part:
as §4

The nature of data set [3]: Oral pharmacokinetic (PK) study (Quintara Discovery). The conditions noted are these: plasma, oral gavage 30 mg/kg. The data set is classed as in vivo. The source says:
The in vivo anticancer activity displaying drug like properties also bears this out as shown in FIG. 9 and the corresponding example.

Another data set concerns the target T5, PI3K-delta (Homo sapiens, UniProt O00329).
T5 construct: Thermo Fisher Scientific-Biosciences Life Sciences Solutions, Madison, WI (contract assay service)
As to the kind of experiment: PI3K inhibition (Thermo Fisher Scientific). The conditions noted are these: 10-point curve, grouped by potency; read-out: IC50 P13K δ. The data set is classed as biochemical. The method, then:
as §1, §2

A further data set concerns the target T6, PI3K-gamma (Homo sapiens, UniProt P48736).
T6 construct: Thermo Fisher Scientific-Biosciences Life Sciences Solutions, Madison, WI (contract assay service)
The data set is described as follows: PI3K inhibition (Thermo Fisher Scientific). The data set is classed as biochemical. The conditions noted are these: 10-point curve, grouped by potency; read-out: IC50 P13K γ. As for the experimental part:
as §1, §2

The next data set deals with Granta. As to the kind of experiment: Mantle cell lymphoma cell viability, AlamarBlue. In kind it is cell-based. The method, then:
(§5) Mantle cell lymphoma cell lines Granta, Mino and Jeko-1 were seeded at a density of 2500 cells/0.1 mL per well in a 96-well plate. Compounds 1 or Palbociclib were added post-plating at 50 μM-50 nM concentrations for 48 hours followed by addition of AlamarBlue® and incubation of plates at 37° C. in 5% CO2 for 6 hours. Fluorescence signals were read as emission at 590 nm after excitation at 560 nm. IC50 for each cell line was determined using Graphpad Prism software module.

A further data set deals with Jeko-1. The data set is described as follows: Mantle cell lymphoma cell viability, AlamarBlue. In kind it is cell-based. As for the experimental part:
as §5

The subject of another data set is Mino. The data set is described as follows: Mantle cell lymphoma cell viability, AlamarBlue. The data set is classed as cell-based. As for the experimental part: as §5
The next data set concerns the target DNA-PK (Homo sapiens, UniProt P78527). The data set is described as follows: DNA-PK inhibition. The data set is classed as biochemical.
For data set [4], the system named is Hepatocellular carcinoma, Neuroblastoma, and Mantle Cell lymphoma cell lines. The data set is described as follows: Percent viability versus concentration, comparison with Palbociclib and combination. The data set is classed as cell-based. The method, then: The percent viability versus concentration experimental procedures for hepatocellular carcinoma cell lines, neuroblastoma cell lines, and Mantle cell lymphoma cell lines was performed as described in example 6, example 4, and example 5, respectively.

A further data set has as its target T7, BRD4 binding domain 1 (Homo sapiens, UniProt O60885).
T7 construct: Reaction Biology Corp., Malvern, PA (contract assay service)
As to the kind of experiment: Bromodomain protein inhibition (Reaction Biology Corp.). The following applies: read-out: IC50 BRD4 binding domain 1. The method, then: as §1
(§6) The compounds of the invention were characterized by their ability to inhibit the target proteins using third party vendors offering such services. PI3K-alpha, PI3K-gamma, and PI3K-delta inhibition activity was determined by Thermo Fisher Scientific-Biosciences Life Sciences Solutions, Madison, WI. […] ND=not done.

The target of a further data set is T8, BRD4 binding domain 2 (Homo sapiens, UniProt O60885).
T8 construct: Reaction Biology Corp., Malvern, PA (contract assay service)
The data set is described as above. The conditions noted are these: read-out: IC50 BRD4 binding domain 2. The method, then:
as §1, §6

The target of another data set is CDK4/Cyclin D1 (Homo sapiens, UniProt P11802). The conditions noted are these: Divakar et al., Leukemia 2016; cited from earlier work.
Sequence of CDK4/Cyclin D1 (P11802 whole entry, species assumed): as the sequence (P11802 whole entry) above
Sequence of CDK4/Cyclin D1 (P24385 whole entry partner, species assumed): as the sequence (P24385 whole entry partner) above
A further data set concerns the target CDK6/Cyclin D1 (Homo sapiens, UniProt Q00534). The following applies: Divakar et al., Leukemia 2016; cited from earlier work.
Setting [5] is: 10-point curve, grouped by potency.

Where two headings read alike, the source gives them in different places.

T3 sequence (Q00534 whole entry): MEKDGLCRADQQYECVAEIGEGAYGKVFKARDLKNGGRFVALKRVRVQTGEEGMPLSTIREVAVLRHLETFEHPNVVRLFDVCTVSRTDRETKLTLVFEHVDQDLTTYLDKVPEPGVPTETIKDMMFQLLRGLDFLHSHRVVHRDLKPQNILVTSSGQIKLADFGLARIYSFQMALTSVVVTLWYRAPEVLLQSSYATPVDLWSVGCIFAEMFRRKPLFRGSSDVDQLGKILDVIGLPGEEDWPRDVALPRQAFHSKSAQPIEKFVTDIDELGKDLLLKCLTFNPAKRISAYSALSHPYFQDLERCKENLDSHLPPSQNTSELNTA
T3 sequence (P24385 whole entry partner): as the sequence (P24385 whole entry partner) above
Sequence of CDK6/Cyclin D1 (Q00534 whole entry, species assumed): as the sequence (Q00534 whole entry) above
Sequence of CDK6/Cyclin D1 (P24385 whole entry partner, species assumed): as the sequence (P24385 whole entry partner) above
T6 sequence (P48736 whole entry): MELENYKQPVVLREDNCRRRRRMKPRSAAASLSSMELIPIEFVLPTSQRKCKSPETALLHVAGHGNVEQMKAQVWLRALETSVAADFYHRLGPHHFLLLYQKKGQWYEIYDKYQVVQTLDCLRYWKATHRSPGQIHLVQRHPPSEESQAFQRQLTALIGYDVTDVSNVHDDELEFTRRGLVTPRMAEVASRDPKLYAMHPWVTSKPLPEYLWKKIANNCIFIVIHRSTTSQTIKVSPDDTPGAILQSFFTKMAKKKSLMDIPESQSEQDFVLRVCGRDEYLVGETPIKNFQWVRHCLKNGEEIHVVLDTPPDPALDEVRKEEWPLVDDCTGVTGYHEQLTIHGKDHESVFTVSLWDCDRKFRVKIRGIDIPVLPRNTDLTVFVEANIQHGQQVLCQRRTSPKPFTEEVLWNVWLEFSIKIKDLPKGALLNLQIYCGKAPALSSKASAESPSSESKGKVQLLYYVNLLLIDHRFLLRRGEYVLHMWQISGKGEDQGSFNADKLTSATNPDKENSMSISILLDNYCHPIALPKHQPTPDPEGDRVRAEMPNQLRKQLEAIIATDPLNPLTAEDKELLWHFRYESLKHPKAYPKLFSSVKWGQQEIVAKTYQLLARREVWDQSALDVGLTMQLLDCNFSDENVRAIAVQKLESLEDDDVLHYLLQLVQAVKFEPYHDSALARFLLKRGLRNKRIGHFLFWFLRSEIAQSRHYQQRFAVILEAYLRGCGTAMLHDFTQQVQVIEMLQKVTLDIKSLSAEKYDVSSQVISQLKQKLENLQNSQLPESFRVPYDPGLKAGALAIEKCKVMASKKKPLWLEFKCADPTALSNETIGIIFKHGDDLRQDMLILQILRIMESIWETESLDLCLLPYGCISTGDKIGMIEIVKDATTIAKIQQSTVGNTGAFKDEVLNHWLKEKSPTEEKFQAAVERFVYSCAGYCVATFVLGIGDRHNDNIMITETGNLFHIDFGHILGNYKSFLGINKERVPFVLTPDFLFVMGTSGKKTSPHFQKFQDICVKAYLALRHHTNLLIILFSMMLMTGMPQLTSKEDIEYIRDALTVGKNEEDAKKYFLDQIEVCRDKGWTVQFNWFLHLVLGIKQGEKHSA

Take `CN(C)C(=O)c1cc2cnc(Nc3ccc(-c4csc5c(=O)cc(N6CCOCC6)oc45)cc3)nc2n1C1CCCC1` [Compound 1, {1-Cyclopentyl-6-[p-(5-morpholino-7-oxo-4-oxa-1-thia-3-indenyl)phenylamino]-1,5,7-triaza-1H-inden-2-yl} (dimethylamino) formaldehyde]: in the data set with Huh7 cells [1], the “phosphorylation of CDK target RB (pRB), Western blot” value was “blocks phosphorylation”. Moreover, in the data set with Huh7 cells [1], the “phosphorylation of PI3K target AKT (p-AKT), Western blot” value is on record as “blocks phosphorylation”. Further, the IC50 is 2 nM at CDK9; 500 nM at CDK2; 3.26 nM at CDK6; under 100 nM against CDK6 (setting [5]); under 2.54 nM on CDK4; under 100 nM against CDK4 (setting [5]). In addition, the IC50 was 4500 nM in the data set on CHLA-136; 962 nM in the data set on SMS-KNCR; 385 nM with CHLA-255; 495 nM in the data set with Huh7 2H cell line; 35 nM at PIM1; 550 nM with Huh7. For the same compound, the IC50 in the data set with HepG2 is 4200 nM; in the data set with Hep3B it was 1100 nM; at PI3K-delta it was under 100 nM; at PI3K-gamma, 1000 to 5000 nM; with Granta (48 hours, read-out: Mantle Cell Line IC50 Values Granta) it was 580 nM; in the data set with Jeko-1 (Homo sapiens, JeKo-1, 48 hours, read-out: Mantle Cell Line IC50 Values Jeko-1), 851 nM. In addition, the IC50 worked out at 583 nM in the data set with Mino (Homo sapiens, MINO, 48 hours, read-out: Mantle Cell Line IC50 Values Mino) and 21 nM at DNA-PK. Further, the “in vivo anticancer efficacy (Huh7 tumors)” value with Huh7 cells [2] is listed as “comparable to the efficacy of 3 separate cognate inhibitors”. Besides, in the data set on Mino and Granta cells, the “PI3K-AKT signaling (p-AKT), Western blot” value is “inhibits”. In the data set with Mino and Granta cells, the “cyclin D/RB signaling (phosphorylation of RB), Western blot” value is listed as “inhibits”. Besides, the concentration at 24 h in data set [3] (24 hours) is 63 nM. Further, the AUC(0-inf) in [3] (Hot Rod Formulation Kit #8) was 3520 ng·h/mL. The compound further gave a Cmax in data set [3] (Hot Rod Formulation Kit #8) of 1400 nM. Further, in data set [3] (Hot Rod Formulation Kit #8), the Tmax is 0.5 h. In addition, the half-life in data set [3] (Hot Rod Formulation Kit #8, read-out: T1/2 (half-life) (converted)) is 10.4 h. The “times more potent than Palbociclib, Granta” value in the data set with Granta (ratio of IC50 values) is reported as 17.7 times. Also, the “times more potent than Palbociclib, Jeko-1” value in the data set on Jeko-1 (ratio of IC50 values) was found to be 8.7 times. Moreover, the “times more potent than Palbociclib, Mino” value in the data set with Mino (ratio of IC50 values) stood at 82.1 times. Besides, the “cell viability compared with Palbociclib” value in data set [4] (Hepatocellular carcinoma, Neuroblastoma, Mantle Cell lymphoma cell lines (FIG. 8A-8C)) was “performed substantially better than Palbociclib”. The “cell viability compared with combination BKM120, JQ1, Palbociclib” value in data set [4] (hepatocellular carcinoma cells (FIG. 8D)) is reported as “performed substantially better”.
Regarding `CN1CCN(c2ccc(Nc3ncc4cc(C#N)c(=O)n(C5CCCC5)c4n3)cc2)CC1` [ON123300, reference compound], the 50% inhibitory concentration (IC50) on BRD4 binding domain 1 is 45600 nM; at BRD4 binding domain 2, over 50000 nM; at CDK4/Cyclin D1, 3.87 nM; on CDK6/Cyclin D1 it was 9.82 nM.

As a reminder, the IC50 is the concentration that gives 50% inhibition. The term AUC(0-inf) denotes total exposure, with the tail of the curve extrapolated. A low value points to low exposure. As usually defined, the Cmax is the maximum level reached in the sampled fluid or tissue. Usually Tmax stands for the time at which the peak concentration occurs.
